Results published in US20190167711A1, “METHODS FOR DIAGNOSIS AND TREATMENT OF ACUTE LYMPHOBLASTIC LEUKEMIA” (MOR RESEARCH APPLICATIONS LTD., priority 2014, published 2019).

Columns and labels:
Assay type in all cases: cell-based
Nalm-6 cells [1] = assay: XTT cell viability assay in Nalm-6 cells; details: NALM-6 cells, transient expression
Method: Cell viability assay was performed using the Cell Proliferation Kit comprising the second-generation tetrazolium dye, XTT. Viable cells with active metabolism convert XTT into an orange colored reduction product, whereas dead cells lose the ability to reduce XTT, thus, color formation serves as a useful and convenient marker of only the viable cells.
The XTT kit was applied to NALM6 transfected cells according to the manufacturer's protocol (Biological Industries, Kibbutz Beit Haemek, Israel). Cells were incubated for 3 hours with the XTT reagent and quantity of reduced XTT (directly proportional to the number of viable cells) was assessed by recording changes in absorbance as measured on a microplate reader at 450-500 nm optical density (OD).
(§1) To measure the effect of NAD^+ depletion following FK866 treatment of Nalm-6 cells, apoptosis and viability were measured as described in Materials and Methods. Nalm-6 cells were treated for 48 hours with 1 nM FK866, and then apoptosis was measured using FACS.

CXCL16 = assay: Western blot of CXCL16 in transfected NALM-6 cells; details: NALM-6 transient
Source text: (§2) Protein was extracted from NALM-6 cell line using Qproteome™ lysis buffer (Qiagen, Hilden, Germany). The membrane was then probed with one or more of the following antibodies: anti-disintegrin and metalloproteinase domain-containing protein 10 (ADAM10) (1:1000) (Abcam; Cambridge, UK) (see Example 9); anti-chemokine C-X-C motif 16 (CXCL16) (1:1000); anti-NAMPT (1:1000); and anti-GAPDH (1:5000) (Santa Crus Biotechnology, Santa Crus, Calif., USA) (see Examples 5 and 9). The secondary antibodies were goat anti-mouse and goat anti-rabbit (1:10,000) (Sigma®, Saint Louis, Mo., USA), for each antigen according to the manufacturer's instructions. […]
(§3) Intensity of the protein band was measured using an in-house program. […]
(§4) Possible miR-451 targets were evaluated using several open access software programs (e.g., Targetscan, PicTar, miRanda, miRDB). […] In the first screening, the suppression of ADAM10, CXCL16 and NAMPT protein level was analyzed in NALM-6 cells transiently expressing miR-451 mimic (SEQ ID NO: 2) and in cells transiently expressing scrambled-miR (universal sequence; negative control) by Western blot as described in Materials and Methods. […]

Nalm-6 cells [2] = assay: Annexin V-FITC apoptosis assay in Nalm-6 cells; details: NALM-6 cells, transient expression
Source text: Cells were stained with annexin V-fluorescein-5-isothiocyanate (FITC) conjugated antibody and propidium iodide (PI) using the Annexin V-FITC Apoptosis Detection Kit (ab14085, Abcam® Incorporated, Cambridge, Mass., USA) according to manufacturer's instructions (see, for example, https://www.abcam.com/ps/products/14/ab14085/documents/ab14085%20Annexin %20V%20FITC%20Apoptosis%20Detection%20Kit%20v4%20(website).pdf), and read on the flow cytometer. Annexin V Apoptosis Detection Kit is based on the observation that soon after initiating apoptosis, cells translocate the membrane phosphatidylserine (PS) from the inner face of the plasma membrane to the cell surface. Once on the cell surface, PS can be easily detected by staining with a fluorescent conjugate (e.g., FITC) of Annexin V, a protein that has a high affinity for PS. The one-step staining procedure takes only 10 minutes. When performing both Annexin V-FITC and PI staining, it is possible to differentiate apoptosis vs necrosis.
as §1

NAMPT 3′-UTR = assay: Luciferase reporter assay with NAMPT 3′-UTR; details: after transfection
Source text: To perform the reporter assay, the regulatory region of NAMPT is cloned […] of the Firefly luciferase gene in an expression vector, and the resulting recombinant vector, e.g., pLightSwitch 3′UTR, is transfected into cells along with an expression vector comprising the Renilla gene serving as reference. In accordance with some embodiments described herein, a target reporter vector containing the full-length wild type NAMPT 3′ untranslated region (3′-UTR) (pLightSwithch NAMPT 3′UTR) purchased from GeneCopoeia™ (Rockville, Md., USA) was co-transfected into NALM-6 cells along with Renilla luciferase vector as internal vector control. The NAMPT 3′-UTR contains miRNA response elements (MREs), to one of which miRNA-451 specifically binds. Twenty-four hours before transfection, NALM-6 cells were plated in 6 wells until 70% confluent. Two hundred (200) pmol miR-451 mimic, 200 pmol scrambled miR (both purchased from IDT®-Syntezza, Jerusalem, Israel) or 2 μg antagomiR-451 plasmid (GeneCopoeia™, Rockville, Md., USA) were transiently transfected into NALM-6 cells together with 2 μg pLightSwitch NAMPT 3′UTR and Renilla luciferase vector. […] Briefly, cells were collected, lysed to release all proteins (including the luciferase), luciferin was added along with all the necessary cofactors, and the enzymatic activity was quantitatively measured using a luminometer. […]

NAMPT = assay: Western blot of NAMPT in transfected NALM-6 cells; details: NALM-6 transient
Source text: as §2, §3, §4

miR-451 mimic: a dsmiR-451 designed to copy or mimic the functionality of mature endogenous miR-451 upon transfection (AAACCGUUACCAUUACUGAGUU; double-stranded mimic, further chemistry not given here; listed as Homo sapiens)
effect on viability (Nalm-6 cells [1]): No effect | CXCL16 protein level compared to scrambled-miR (CXCL16): only NAMPT protein expression levels were reduced | effect on apoptosis rate (Nalm-6 cells [2]): No effect | relative luciferase activity of NAMPT 3′-UTR reporter decreased by (NAMPT 3′-UTR): 80% | NAMPT protein expression levels compared to scrambled-miR (NAMPT): reduced
